Source: patent US20040072862A1, “Compositions for treating ischemia-related neuronal damage” (priority 1999, published 2004)
pEC50: −log10 of the molar value.

How the values were obtained:
[1] = tested on: OGD cells (retinal ganglion cells); assay: Increase in survival of OGD cells, dose-dependent data; format: cell-based, Sprague-Dawley rat
Protocol: (§1) Untreated OGD cells were also included as controls.
(§2) The tissue was then disrupted sequentially with a 1 ml pipette, in a solution containing ovomucoid (Boehringer-Mannheim), DNase (Sigma), and bovine serum albumin (BSA; Sigma) to yield a single cell suspension. The cells were then washed in a suspension of ovomucoid/BSA.

[2] = tested on: Oxygen/Glucose Deprived RGCs; assay: Protection of oxygen/glucose deprived (OGD) retinal ganglion cells, EC50; format: cell-based, Sprague-Dawley rat; conditions: Rattus norvegicus; compound added from 30 min prior to OGD, during OGD, and 24 and 48 h after OGD
Protocol: as §1, §2

Compound `Oc1cccc2nc(Cc3nc4ccccc4[nH]3)[nH]c12` [SNX-926, 2-(benzimidazol-2-ylmethyl)benzimidazol-7-ol] has an activation at 0.001 µM ([1]; Rattus norvegicus, 0.001 μM, read-out: Percent Increase in Survival over OGD Control Cells) of under 50%, an activation at 0.01 µM ([1]; Rattus norvegicus, 0.01 μM, read-out: Percent Increase in Survival over OGD Control Cells) of 50 to 100% and an activation at 0.1 µM ([1]; Rattus norvegicus, 0.1 μM, read-out: Percent Increase in Survival over OGD Control Cells) of over 100%. The activation at 1 µM ([1]; Rattus norvegicus, 1 μM, read-out: Percent Increase in Survival over OGD Control Cells) was over 100%, the activation at 10 µM ([1]; Rattus norvegicus, 10 μM, read-out: Percent Increase in Survival over OGD Control Cells) was 50 to 100% and the “TI (therapeutic index)” value ([1]; rat, retinal ganglion cells) was over 250. The pEC50 [2] was 7.40.
